Patent US20230331707A1, “PROGRAMMED CELL NECROSIS INHIBITOR, PREPARATION METHOD THEREFOR, AND USE THEREOF” (Shanghai Institute of Organic Chemistry, Chinese Academy of …, priority 2020, published 2023)

Columns and labels:
[1] = Liver microsomal stability test, human; format: in vitro ADME
Source text: The adopted biological test protocol was: testing the half-life of the compound in human- or mouse-derived liver microsomes.
Liver microsomes contain many enzymes involved in drug metabolism, especially cytochrome P-450, and therefore it is one of the major tissues involved in drug metabolism in living organisms. There are some correlations between the stability of the compound in liver microsomes and the pharmacogenetic stability thereof in vivo. Therefore, the relative stability of compounds in vivo can be roughly predicted by testing the half-life of different compounds in human- or mouse-derived liver microsomes. The specific methods were as follows:
Methods: 0.75 μL of 0.5 mM samples (compounds to be tested and control verapamil), 9.38 μL of 20 mg/mL liver microsomes (Human and Mouse) were taken and added to 239.88 μL PBS (on ice), and divided into 30 μL/tube samples respectively. The samples were incubated at 37° C. in a constant temperature water bath for 5 min, and then all samples were taken out. At zero-time, control group was added with 90 μL of ice acetonitrile first, and then added with 15 μL of 3 mM NADPH solution sequentially, and incubated at 37° C. in a constant temperature water bath. The corresponding samples were taken out after 5 min, 10 min, 20 min, 30 min and 60 min, respectively, and quenched by adding 90 μL of ice acetonitrile. All samples were centrifuged at 10000 rpm for 10 min, and the supernatants were taken and placed in a liquid phase vial waiting for LC-MS analysis.

[2] = system: RIPK1^K612R/K612R mutant mice; experiment: Digestive system inflammation in RIPK1 K612R/K612R mutant mice; format: in vivo; conditions: gavage 25 mg/kg, control Nec-1s 50 mg/kg
Source text: The adopted biological test scheme was: RIPK1^K612R/K612R mutant mice were used as model mice to test the effect of representative compound QY-10-40 or QY-13-19 on spontaneous intestinal inflammation.
K612R mutation leads to decreased in intracellular RIPK1 level but abnormal activation, making it sensitive to programmed necrosis and caspase-1 activation, and responding to TLRs signaling. RIPK1^K612R/K612R mice will appear responses such as age-dependent reduced RIPK1 expression and abnormal activation, spontaneous intestinal inflammation and splenomegaly.
Methods: The compounds to be tested were dissolved in 0.5% carboxymethyl cellulose according to the required concentration one day in advance, and sonicated overnight. Mice were gavaged in a volume of 0.1 ml/10 g body weight. Body weight was measured three times a week, and samples were collected at the end of the experiment. The effect of the compounds was calculated using Prism Graphpad statistical software.

Cn1ncc(C(=O)NCc2ccc(-n3cnc4c(N)ncnc43)cc2)c1Cc1ccccc1 [QY-10-40]
stability in liver microsomes (in words) ([1]; human derived liver microsomes): good stability | T1/2 (min) Human ([1]; human liver microsomes, NADPH, 37° C.): 40.8 min | effect on body weight and spleen coefficient [2]: can inhibit the effect of the digestive system inflammation
